Measured values as given in ChEMBL document CHEMBL1129132, “8-amino-6-(arylsulphonyl)-5-nitroquinolines: novel nonpeptide neuropeptide Y1 receptor antagonists” (Bioorg Med Chem Lett, 1996).

Tests used:
[1] = molecular target: T1, Neuropeptide Y receptor type 1 (Homo sapiens, UniProt P25929); assay: Compound was tested for binding affinity against neuropeptide Y1 (NPY1) receptor from SK-N-MC membranes using [125I]PYY as radioligand
T1 sequence (P25929 whole entry): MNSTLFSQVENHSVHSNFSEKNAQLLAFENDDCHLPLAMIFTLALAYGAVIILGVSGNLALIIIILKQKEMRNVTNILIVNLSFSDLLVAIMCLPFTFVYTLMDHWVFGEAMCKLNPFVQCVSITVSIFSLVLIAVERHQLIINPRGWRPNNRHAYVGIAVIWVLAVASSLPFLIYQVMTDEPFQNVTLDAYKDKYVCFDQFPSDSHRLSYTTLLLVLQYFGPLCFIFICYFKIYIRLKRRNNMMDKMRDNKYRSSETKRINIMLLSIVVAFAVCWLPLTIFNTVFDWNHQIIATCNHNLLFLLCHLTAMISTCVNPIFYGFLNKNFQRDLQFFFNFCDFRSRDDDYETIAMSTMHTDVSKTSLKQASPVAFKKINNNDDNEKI

[2] = molecular target: T2, Neuropeptide Y receptor type 2 (Rattus norvegicus, UniProt Q9ERC0); assay: Compound was tested for binding affinity against neuropeptide Y2 (NPY2) receptor from rat hippocampi.; assay type: tissue-based, Hippocampus
T2 sequence (Q9ERC0 whole entry): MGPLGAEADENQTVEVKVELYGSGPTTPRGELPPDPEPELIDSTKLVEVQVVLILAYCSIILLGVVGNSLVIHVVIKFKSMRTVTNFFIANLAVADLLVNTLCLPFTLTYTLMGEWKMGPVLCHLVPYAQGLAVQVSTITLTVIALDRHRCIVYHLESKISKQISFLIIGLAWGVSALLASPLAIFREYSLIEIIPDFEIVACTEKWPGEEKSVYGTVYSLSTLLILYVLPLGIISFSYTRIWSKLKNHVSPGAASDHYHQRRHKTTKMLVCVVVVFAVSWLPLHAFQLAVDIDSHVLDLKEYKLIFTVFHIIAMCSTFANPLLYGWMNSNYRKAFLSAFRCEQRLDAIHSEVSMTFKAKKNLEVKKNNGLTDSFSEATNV

Compound	Ki [1] [µM]	IC50 [2] [µM]	Ki [2] [µM]
Nc1ccc([S+]([O-])c2cc(N)c3ncccc3c2[N+](=O)[O-])cc1 (configuration not stated)	1.25	–	–
Nc1ccc(S(=O)(=O)c2ccc3ncccc3c2[N+](=O)[O-])cc1	> 10	–	–
Cc1cc(S(=O)(=O)c2ccccc2)c([N+](=O)[O-])c2cccnc12	> 10	–	–
Nc1ccc(Sc2cc(N)c3ncccc3c2[N+](=O)[O-])cc1	> 10	–	–
CC(C)c1ccccc1S(=O)(=O)c1cc(N)c2ncccc2c1[N+](=O)[O-]	–	10	–
Nc1ccc(S(=O)(=O)c2cc(N)c3ncccc3c2)cc1	> 10	–	–
Nc1ccc(S(=O)(=O)c2cc(N)c3ncccc3c2N)cc1	> 10	–	–
CNc1cc(S(=O)(=O)c2ccccc2)c([N+](=O)[O-])c2cccnc12	> 10	–	–
Nc1ccc(S(=O)(=O)c2cc(N)c3ncccc3c2[N+](=O)[O-])cc1	0.282	–	> 10
CS(=O)(=O)c1cc(N)c2ncccc2c1[N+](=O)[O-]	> 10	–	–
Nc1cc(NS(=O)(=O)c2ccccc2)c([N+](=O)[O-])c2cccnc12	> 10	–	–
